The nature of experiment [1]: Cytotoxicity against human HT-29 cells after 72 hrs by MTT assay. The following applies: HT-29, 72 h.
A short description of experiment [2]: Cytotoxicity against human MKN45 cells after 72 hrs by MTT assay. The following applies: MKN-45, 72 h.
Experiment [3] in a line: Cytotoxicity against human A549 cells after 72 hrs by MTT assay. The note with it: A549, 72 h.
The target in experiment [4] is Hepatocyte growth factor receptor (Homo sapiens, UniProt P08581). As to the kind of experiment: Inhibition of c-MET (unknown origin) using poly (Glu, Tyr) 4:1 as substrate after 30 mins by HTRF assay. (TR-FRET usually uses a lanthanide donor and a delayed reading to cut background.)
Experiment [5] deals with Vascular endothelial growth factor receptor 2 (Homo sapiens, UniProt P35968). As to the kind of experiment: Inhibition of VEGFR-2 (unknown origin).
For experiment [6], the target named is T1, Receptor-type tyrosine-protein kinase FLT3 (Homo sapiens, UniProt P36888).
T1 sequence (P36888 whole entry): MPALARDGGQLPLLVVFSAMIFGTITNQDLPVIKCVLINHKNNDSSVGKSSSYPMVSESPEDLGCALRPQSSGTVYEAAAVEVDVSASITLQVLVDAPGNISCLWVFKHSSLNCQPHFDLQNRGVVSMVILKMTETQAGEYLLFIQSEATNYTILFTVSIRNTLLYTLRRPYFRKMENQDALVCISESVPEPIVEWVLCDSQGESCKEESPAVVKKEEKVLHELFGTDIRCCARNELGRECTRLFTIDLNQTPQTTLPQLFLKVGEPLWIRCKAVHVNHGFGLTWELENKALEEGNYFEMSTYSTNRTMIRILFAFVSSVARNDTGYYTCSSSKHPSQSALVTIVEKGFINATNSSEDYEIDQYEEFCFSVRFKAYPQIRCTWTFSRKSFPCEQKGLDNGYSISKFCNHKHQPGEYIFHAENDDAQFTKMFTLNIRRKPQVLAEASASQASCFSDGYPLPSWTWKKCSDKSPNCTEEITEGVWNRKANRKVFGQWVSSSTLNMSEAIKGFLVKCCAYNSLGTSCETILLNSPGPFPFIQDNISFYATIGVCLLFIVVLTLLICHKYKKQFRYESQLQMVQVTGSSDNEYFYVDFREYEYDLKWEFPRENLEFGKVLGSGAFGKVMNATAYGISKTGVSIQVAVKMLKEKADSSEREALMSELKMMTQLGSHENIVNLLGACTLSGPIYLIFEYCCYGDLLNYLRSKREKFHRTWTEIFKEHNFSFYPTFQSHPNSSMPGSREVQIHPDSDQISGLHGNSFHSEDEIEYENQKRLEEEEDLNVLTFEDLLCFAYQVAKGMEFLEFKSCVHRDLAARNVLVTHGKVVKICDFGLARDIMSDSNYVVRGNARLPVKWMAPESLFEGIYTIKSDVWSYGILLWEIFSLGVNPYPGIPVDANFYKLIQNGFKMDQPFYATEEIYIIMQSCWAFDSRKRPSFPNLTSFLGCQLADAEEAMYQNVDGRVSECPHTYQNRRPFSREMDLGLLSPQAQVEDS
As to the kind of experiment: Inhibition of FLT3 (unknown origin).

Experiment [7] has as its target ALK tyrosine kinase receptor (Homo sapiens, UniProt Q9UM73). In words: Inhibition of ALK (unknown origin).
Experiment [8] addresses Epidermal growth factor receptor (Homo sapiens, UniProt P00533). As to the kind of experiment: Inhibition of EGFR (unknown origin).
In experiment [9] the target is Mast/stem cell growth factor receptor Kit (Homo sapiens, UniProt P10721). As to the kind of experiment: Inhibition of c-KIT (unknown origin).
Another experiment has as its system HT-29. As to the kind of experiment: Potency index, ratio of foretinib IC50 to compound IC50 for human HT-29 cells. It is filed as functional.
For a further experiment, the system named is MKN-45. As to the kind of experiment: Potency index, ratio of foretinib IC50 to compound IC50 for human MKN45 cells. It counts as functional.
The next experiment deals with A549. As to the kind of experiment: Potency index, ratio of foretinib IC50 to compound IC50 for human A549 cells. It is filed as functional.

The record followed here is ChEMBL document CHEMBL3872279, “Design, synthesis and biological evaluation of novel 4-(2-fluorophenoxy)quinoline derivatives as selective c-Met inhibitors” (Bioorg Med Chem, 2017).

Structures are written as SMILES.

As a reminder, the IC50 is the concentration at which inhibition is half-maximal.

Sequence of Mast/stem cell growth factor receptor Kit (P10721 whole entry): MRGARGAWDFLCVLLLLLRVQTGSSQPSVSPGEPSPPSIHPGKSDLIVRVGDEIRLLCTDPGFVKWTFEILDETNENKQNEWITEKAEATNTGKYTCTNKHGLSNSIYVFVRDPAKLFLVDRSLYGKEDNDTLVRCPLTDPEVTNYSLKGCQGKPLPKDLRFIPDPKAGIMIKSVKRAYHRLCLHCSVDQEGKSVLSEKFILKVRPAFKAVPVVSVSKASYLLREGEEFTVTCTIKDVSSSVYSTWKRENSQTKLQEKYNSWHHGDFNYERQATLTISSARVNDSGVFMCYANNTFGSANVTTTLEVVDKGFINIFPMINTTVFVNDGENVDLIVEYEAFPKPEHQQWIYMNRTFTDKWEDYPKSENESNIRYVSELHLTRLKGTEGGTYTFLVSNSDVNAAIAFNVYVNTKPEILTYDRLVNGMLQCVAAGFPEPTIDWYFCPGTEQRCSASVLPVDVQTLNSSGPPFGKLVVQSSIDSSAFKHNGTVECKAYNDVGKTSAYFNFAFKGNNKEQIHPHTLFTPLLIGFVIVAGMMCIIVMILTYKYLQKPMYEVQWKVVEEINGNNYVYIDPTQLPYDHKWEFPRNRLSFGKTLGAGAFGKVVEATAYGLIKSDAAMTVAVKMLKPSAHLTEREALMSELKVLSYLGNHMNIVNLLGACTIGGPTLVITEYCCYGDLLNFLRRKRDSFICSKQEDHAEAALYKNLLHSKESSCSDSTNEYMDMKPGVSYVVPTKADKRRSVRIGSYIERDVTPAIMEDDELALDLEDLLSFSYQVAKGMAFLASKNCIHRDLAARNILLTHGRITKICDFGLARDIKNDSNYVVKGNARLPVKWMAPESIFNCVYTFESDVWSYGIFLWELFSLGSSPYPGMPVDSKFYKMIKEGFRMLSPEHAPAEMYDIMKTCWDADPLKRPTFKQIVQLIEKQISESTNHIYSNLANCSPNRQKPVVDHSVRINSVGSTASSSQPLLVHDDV
Sequence of ALK tyrosine kinase receptor (Q9UM73 whole entry): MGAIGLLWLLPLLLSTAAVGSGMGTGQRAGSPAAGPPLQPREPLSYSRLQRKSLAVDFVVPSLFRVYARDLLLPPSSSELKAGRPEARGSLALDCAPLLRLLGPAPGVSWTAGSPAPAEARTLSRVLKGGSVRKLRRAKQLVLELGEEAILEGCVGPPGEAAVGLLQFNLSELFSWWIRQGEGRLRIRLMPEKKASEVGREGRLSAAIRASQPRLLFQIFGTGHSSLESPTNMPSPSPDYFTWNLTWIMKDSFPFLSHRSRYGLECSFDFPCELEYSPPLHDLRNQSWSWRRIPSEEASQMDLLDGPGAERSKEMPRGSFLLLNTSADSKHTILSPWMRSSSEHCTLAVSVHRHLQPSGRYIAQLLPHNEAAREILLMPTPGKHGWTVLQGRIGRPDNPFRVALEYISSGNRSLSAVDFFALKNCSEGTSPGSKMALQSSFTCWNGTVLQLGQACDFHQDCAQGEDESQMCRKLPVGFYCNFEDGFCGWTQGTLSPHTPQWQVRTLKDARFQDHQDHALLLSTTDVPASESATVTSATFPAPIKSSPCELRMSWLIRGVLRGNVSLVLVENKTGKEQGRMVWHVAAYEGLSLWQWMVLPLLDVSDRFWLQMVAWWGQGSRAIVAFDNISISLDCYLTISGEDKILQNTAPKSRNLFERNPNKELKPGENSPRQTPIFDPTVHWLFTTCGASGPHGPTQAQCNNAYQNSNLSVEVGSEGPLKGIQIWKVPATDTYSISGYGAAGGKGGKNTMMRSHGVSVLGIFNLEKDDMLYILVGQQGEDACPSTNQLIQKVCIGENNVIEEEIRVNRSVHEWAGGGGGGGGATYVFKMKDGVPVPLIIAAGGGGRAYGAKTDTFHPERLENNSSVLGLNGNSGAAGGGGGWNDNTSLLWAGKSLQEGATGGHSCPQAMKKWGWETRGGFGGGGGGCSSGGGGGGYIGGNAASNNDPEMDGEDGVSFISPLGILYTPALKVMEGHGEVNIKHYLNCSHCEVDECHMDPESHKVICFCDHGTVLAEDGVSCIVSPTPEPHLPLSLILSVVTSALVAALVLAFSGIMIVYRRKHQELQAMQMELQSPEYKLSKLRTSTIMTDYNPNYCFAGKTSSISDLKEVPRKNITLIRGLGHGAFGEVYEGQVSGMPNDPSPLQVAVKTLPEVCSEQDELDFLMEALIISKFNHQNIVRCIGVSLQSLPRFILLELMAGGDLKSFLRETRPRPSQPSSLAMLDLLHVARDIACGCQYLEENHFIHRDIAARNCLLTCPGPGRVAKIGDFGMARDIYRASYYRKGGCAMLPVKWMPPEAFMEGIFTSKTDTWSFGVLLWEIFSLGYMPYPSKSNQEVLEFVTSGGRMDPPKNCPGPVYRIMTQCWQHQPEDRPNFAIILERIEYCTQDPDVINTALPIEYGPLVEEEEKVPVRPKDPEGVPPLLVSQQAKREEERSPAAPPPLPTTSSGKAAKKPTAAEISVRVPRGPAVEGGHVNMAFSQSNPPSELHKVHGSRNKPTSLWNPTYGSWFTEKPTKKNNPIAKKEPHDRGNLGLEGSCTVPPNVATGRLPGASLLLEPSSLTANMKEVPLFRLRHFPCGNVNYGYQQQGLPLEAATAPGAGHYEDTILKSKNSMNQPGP
Sequence of Epidermal growth factor receptor (P00533 whole entry): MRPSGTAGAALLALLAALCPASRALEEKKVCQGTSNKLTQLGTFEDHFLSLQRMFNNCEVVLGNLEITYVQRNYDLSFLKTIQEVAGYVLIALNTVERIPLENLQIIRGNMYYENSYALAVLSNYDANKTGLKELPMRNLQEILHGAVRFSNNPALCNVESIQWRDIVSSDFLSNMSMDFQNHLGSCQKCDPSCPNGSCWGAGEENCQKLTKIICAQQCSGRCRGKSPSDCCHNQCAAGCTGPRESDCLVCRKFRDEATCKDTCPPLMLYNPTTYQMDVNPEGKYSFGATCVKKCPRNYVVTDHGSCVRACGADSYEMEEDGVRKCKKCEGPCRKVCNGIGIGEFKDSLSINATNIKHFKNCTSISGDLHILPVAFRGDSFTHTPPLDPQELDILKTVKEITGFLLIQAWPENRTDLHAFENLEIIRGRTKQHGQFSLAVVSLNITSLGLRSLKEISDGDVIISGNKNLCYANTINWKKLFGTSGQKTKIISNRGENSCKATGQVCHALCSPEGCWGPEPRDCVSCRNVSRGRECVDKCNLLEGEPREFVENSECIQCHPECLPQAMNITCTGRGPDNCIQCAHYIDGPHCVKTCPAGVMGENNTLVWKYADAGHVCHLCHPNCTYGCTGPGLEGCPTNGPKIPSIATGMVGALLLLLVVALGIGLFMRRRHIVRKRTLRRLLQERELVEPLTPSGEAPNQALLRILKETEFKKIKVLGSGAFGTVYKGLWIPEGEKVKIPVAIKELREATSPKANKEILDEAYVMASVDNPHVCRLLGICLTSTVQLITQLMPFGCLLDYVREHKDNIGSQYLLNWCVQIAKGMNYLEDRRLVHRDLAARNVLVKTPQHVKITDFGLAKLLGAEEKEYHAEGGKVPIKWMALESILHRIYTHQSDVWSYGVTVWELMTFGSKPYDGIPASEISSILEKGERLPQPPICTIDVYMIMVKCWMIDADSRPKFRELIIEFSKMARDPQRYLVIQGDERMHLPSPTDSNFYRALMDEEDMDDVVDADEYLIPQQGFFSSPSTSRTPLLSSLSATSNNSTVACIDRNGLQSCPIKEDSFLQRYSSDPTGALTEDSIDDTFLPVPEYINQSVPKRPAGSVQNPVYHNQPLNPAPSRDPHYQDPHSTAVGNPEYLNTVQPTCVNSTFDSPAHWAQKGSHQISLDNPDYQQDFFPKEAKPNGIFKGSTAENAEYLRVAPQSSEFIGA

`COc1cc2c(Oc3ccc(NC(=O)c4cn(-c5ccc(Cl)cc5Cl)cn4)cc3F)ccnc2cc1OCCCN1CCN(C)CC1`: the figures for the IC50 in [1], in experiment [2] and in experiment [3] were 3050 nM, 4840 nM and 3850 nM, respectively.

`COc1cc2c(Oc3ccc(NC(=O)/C=C/S(=O)(=O)c4ccccc4OC)cc3F)ccnc2cc1OCCCN1CCCCC1`: the values for the IC50 in experiment [1], in [2] and in experiment [3] were 660 nM, 980 nM and 470 nM, respectively.

Regarding `COc1cc2c(Oc3ccc(NC(=O)/C=C/S(=O)(=O)c4ccccc4OC)cc3F)ccnc2cc1OCCCN1CCOCC1`, the IC50 in [1] was 1180 nM; in experiment [2], 1470 nM; in experiment [3], 770 nM.

With `COc1cc2c(Oc3ccc(NC(=O)/C=C/S(=O)(=O)c4ccccc4F)cc3F)ccnc2cc1OCCCN1CCOCC1`, the IC50 in experiment [1] is 600 nM; in experiment [2], 420 nM; in experiment [3], 210 nM.

Take `COc1ccc(S(=O)(=O)/C=C/C(=O)Nc2ccc(Oc3ccnc4cc(OCCCN5CCN(C)CC5)c(OC)cc34)c(F)c2)cc1`: the half-maximal inhibitory concentration (IC50) worked out at 1660 nM in [1], 2770 nM in experiment [2] and 1870 nM in experiment [3].

Turning to `COc1cc2c(Oc3ccc(NC(=O)/C=C/S(=O)(=O)c4ccc(C)cc4)cc3F)ccnc2cc1OCCCN1CCN(C)CC1`, the results for the IC50 in experiment [1], in experiment [2] and in experiment [3] were 2070 nM, 2510 nM and 1510 nM, respectively.

For `COc1cc2c(Oc3ccc(NC(=O)c4cn(-c5ccc(Cl)cc5Cl)cn4)cc3F)ccnc2cc1OCCCN1CCCCC1`, the IC50 in experiment [1] was 4300 nM; in experiment [2], 6240 nM; in experiment [3] it was 7490 nM.

For the compound `COc1cc2c(Oc3ccc(NC(=O)c4cn(-c5cc(C)ccc5C)cn4)cc3F)ccnc2cc1OCCCN1CCN(C)CC1`, the results for the IC50 in experiment [1], in experiment [2] and in experiment [3] were 470 nM, 650 nM and 350 nM, respectively.

With `COc1cc2c(Oc3ccc(NC(=O)c4cn(-c5ccc(Cl)cc5)cn4)cc3F)ccnc2cc1OCCCN1CCCCC1`, the IC50 came to 2780 nM in experiment [1], 5910 nM in experiment [2] and 6560 nM in [3].

Regarding `COc1cc2c(Oc3ccc(NC(=O)c4cn(-c5ccccc5OC(F)(F)F)cn4)cc3F)ccnc2cc1OCCCN1CCOCC1`, the IC50 in [1] was determined as 430 nM; in experiment [2], 180 nM; in experiment [3] it was 520 nM.

For `COc1ccc(S(=O)(=O)/C=C/C(=O)Nc2ccc(Oc3ccnc4cc(OCCCN5CCCCC5)c(OC)cc34)c(F)c2)cc1`, the IC50 was found to be 1650 nM in experiment [1], 3580 nM in experiment [2] and 2220 nM in experiment [3].

Turning to `COc1cc2c(Oc3ccc(NC(=O)c4cn(-c5ccccc5OC(F)(F)F)cn4)cc3F)ccnc2cc1OCCCN1CCN(C)CC1`, the concentration for half-maximal inhibition (IC50) stood at 170 nM in [1], 120 nM in experiment [2] and 130 nM in [3].

For `COc1cc2c(Oc3ccc(NC(=O)/C=C/S(=O)(=O)c4ccccc4F)cc3F)ccnc2cc1OCCCN1CCN(C)CC1`, the IC50 in experiment [1] turned out to be 150 nM; in [2], 280 nM; in experiment [3], 150 nM.

As for `COc1cc2c(Oc3ccc(NC(=O)c4cn(-c5ccccc5OC(F)(F)F)cn4)cc3F)ccnc2cc1OCCCN1CCCCC1`, the results for the IC50 in experiment [1], in experiment [2] and in [3] were 250 nM, 190 nM and 270 nM, respectively.

Turning to `COc1cc2c(Oc3ccc(NC(=O)c4cn(-c5cc(C)ccc5C)cn4)cc3F)ccnc2cc1OCCCN1CCOCC1`, the IC50 in [1] is 1960 nM; in experiment [2], 3200 nM; in experiment [3], 5480 nM.

Consider `COc1cc2c(Oc3ccc(NC(=O)c4cn(-c5ccccc5OC(F)(F)F)cn4)cc3F)ccnc2cc1OCCCN1CCC(C)CC1`, for which the values for the IC50 in [1], in [2] and in [3] were 690 nM, 150 nM and 760 nM, respectively.

For `COc1cc2c(Oc3ccc(NC(=O)c4cn(-c5cc(C)ccc5C)cn4)cc3F)ccnc2cc1OCCCN1CCC(C)CC1`, the values for the IC50 in experiment [1], in experiment [2] and in experiment [3] were 2220 nM, 5650 nM and 7420 nM, respectively.

As to `COc1cc2c(Oc3ccc(NC(=O)/C=C/S(=O)(=O)c4ccccc4OC)cc3F)ccnc2cc1OCCCN1CCC(C)CC1`, the IC50 in experiment [1] is 1960 nM; in experiment [2], 2030 nM; in experiment [3], 3000 nM.

`COc1cc2c(Oc3ccc(NC(=O)/C=C/S(=O)(=O)c4ccccc4OC)cc3F)ccnc2cc1OCCCN1CCN(C)CC1`: the IC50 stood at 270 nM in experiment [1], 430 nM in experiment [2] and 320 nM in experiment [3].

As to `COc1cc2c(Oc3ccc(NC(=O)/C=C/S(=O)(=O)c4ccc(C)cc4)cc3F)ccnc2cc1OCCCN1CCCCC1`, the IC50 came out at 4230 nM in [1], 1690 nM in [2] and 2310 nM in experiment [3].

`COc1cc2c(Oc3ccc(NC(=O)c4cn(-c5ccccc5OC)cn4)cc3F)ccnc2cc1OCCCN1CCC(C)CC1`: the IC50 worked out at 300 nM in experiment [1], 600 nM in [2] and 400 nM in experiment [3].

As to `COc1cc2c(Oc3ccc(NC(=O)c4cn(-c5ccc(Cl)cc5)cn4)cc3F)ccnc2cc1OCCCN1CCN(C)CC1`, the IC50 in [1] came out at 1350 nM; in [2], 4110 nM; in [3], 5200 nM.

With `COc1cc2c(Oc3ccc(NC(=O)c4cn(-c5ccccc5OC)cn4)cc3F)ccnc2cc1OCCCN1CCOCC1`, the IC50 is 200 nM in [1], 320 nM in [2] and 150 nM in [3].

As for `COc1cc2c(Oc3ccc(NC(=O)c4cn(-c5ccccc5OC)cn4)cc3F)ccnc2cc1OCCCN1CCCCC1`, the IC50 in experiment [1] is 100 nM; in experiment [2], 260 nM; in experiment [3], 120 nM.

Regarding `COc1cc2c(Oc3ccc(NC(=O)c4cn(-c5cc(C)ccc5C)cn4)cc3F)ccnc2cc1OCCCN1CCCCC1`, the IC50 in experiment [1] amounted to 580 nM; in [2], 830 nM; in experiment [3] it was 510 nM.

As to `COc1cc2c(Oc3ccc(NC(=O)/C=C/S(=O)(=O)c4ccccc4F)cc3F)ccnc2cc1OCCCN1CCC(C)CC1`, the IC50 in [1] stood at 760 nM; in experiment [2], 840 nM; in experiment [3], 410 nM.

On to `COc1cc2c(Oc3ccc(NC(=O)c4cn(-c5ccccc5OC)cn4)cc3F)ccnc2cc1OCCCN1CCN(C)CC1`, for which the IC50 in experiment [1] worked out at 80 nM; in [2] it was 220 nM; in [3], 70 nM; in experiment [4], 1.1 nM; in experiment [5] it was 589 nM; in experiment [6], 400 nM. Also, the IC50 is > 3.33 µM in [7], 690 nM in experiment [8] and 270 nM in experiment [9]. In addition, the “Ratio IC50” value in the experiment on HT-29 came to 3.1; with MKN-45, 1.4; with A549, 2.1.
